Measured values taken from BigSolDB 2.1.

CN1c2ccccc2C(=O)N2CCc3c([nH]c4ccccc34)[C@H]21
solubility (mole fraction)
Conditions	283.2 K	288.2 K	293.2 K	298.2 K	303.2 K	313.2 K	323.2 K
in acetone	0.000216	–	0.000303	–	0.00038	0.000513	0.000676
in chloroform	0.000683	–	0.000876	–	0.00105	0.00135	0.00183
in cyclohexane	1.68e-06	–	2.81e-06	–	4.49e-06	6.47e-06	9.36e-06
in dichloromethane	0.000334	0.00037	0.000417	0.00048	0.000571	–	–
in diethyl ether	4.06e-05	5.16e-05	6.93e-05	7.51e-05	9.09e-05	–	–
in ethanol	6.12e-05	–	8.02e-05	–	0.000116	0.000173	0.000257
in ethyl acetate	0.000135	–	0.000165	–	0.000255	0.000321	0.000412
in isopropanol	7e-05	–	8.69e-05	–	0.000119	0.000181	0.000287
in methanol	3.52e-05	–	5.19e-05	–	7.24e-05	0.00011	0.000176
in n-butanol	0.000112	–	0.000139	–	0.000216	0.000317	0.000458
in n-hexane	1.05e-06	–	1.66e-06	–	2.61e-06	4.37e-06	5.84e-06
in n-pentane	1.59e-06	2.2e-06	2.92e-06	3.79e-06	4.7e-06	–	–
